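Values below derive from 48-hour exposures of cells grown in 96-well plates, with endpoints linearly interpolated between the two concentrations bracketing the appropriate inhibition level. The concentration for 50% growth inhibition is given as GI50.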 Active and inactive are the calls of the source. Cut-off read from the data, not from the text of the source: active = GI50 up to about 1.1 µM and inactive = higher.
How the values were obtained:
Test in all cases: inhibition of tumour cell growth, NCI panel, 48 h
786-0 = system: 786-0
MCF7 = system: MCF7
NCI-H226 = system: NCI-H226
MOLT-4 = system: MOLT-4
A549 = system: A549
LOX IMVI = system: LOX IMVI
IGROV-1 = system: IGROV-1
PC-3 = system: PC-3
HOP-92 = system: HOP-92
U-251 = system: U-251
OVCAR-3 = system: OVCAR-3
NCI-H522 = system: NCI-H522
EKVX = system: EKVX
UO-31 = system: UO-31
HT-29 = system: HT-29
HCC 2998 = system: HCC 2998
NCI-H460 = system: NCI-H460
COLO 205 = system: COLO 205
OVCAR-4 = system: OVCAR-4
SR = system: SR

| SMILES | GI50 (786-0) | GI50 (MCF7) | GI50 (NCI-H226) | GI50 (MOLT-4) | GI50 (A549) | GI50 (LOX IMVI) | GI50 (IGROV-1) | GI50 (PC-3) | GI50 (HOP-92) | GI50 (U-251) | GI50 (OVCAR-3) | GI50 (NCI-H522) | GI50 (EKVX) | GI50 (UO-31) | GI50 (HT-29) | GI50 (HCC 2998) | GI50 (NCI-H460) | GI50 (COLO 205) | GI50 (OVCAR-4) | GI50 (SR) |
| --- | --- | --- | --- | --- | --- | --- | --- | --- | --- | --- | --- | --- | --- | --- | --- | --- | --- | --- | --- | --- |
| COc1cc2c(c(O)c1OC)C(O)C1CCC(=O)N1C2c1ccc2c(c1)OCO2 (stereo not given) | > 100 µM (inactive) | > 100 µM (inactive) | > 100 µM (inactive) | > 100 µM (inactive) | > 100 µM (inactive) | > 100 µM (inactive) | > 100 µM (inactive) | > 100 µM (inactive) | > 100 µM (inactive) | > 100 µM (inactive) | > 100 µM (inactive) | > 100 µM (inactive) | > 100 µM (inactive) | > 100 µM (inactive) | 80.2 µM (inactive) | > 100 µM (inactive) | > 100 µM (inactive) | > 100 µM (inactive) | > 100 µM (inactive) | > 100 µM (inactive) |
| CC(=O)c1cc2c(s1)C(=O)c1ccccc1C2=O | 5.93 µM (inactive) | 2.08 µM (inactive) | 2.61 µM (inactive) | 2.48 µM (inactive) | 3.52 µM (inactive) | 0.346 µM (active) | 2.01 µM (inactive) | 3.24 µM (inactive) | 4.18 µM (inactive) | 2.37 µM (inactive) | 0.513 µM (active) | 0.944 µM (active) | 4.39 µM (inactive) | 1.79 µM (inactive) | 3.4 µM (inactive) | 5.37 µM (inactive) | 1.05 µM (active) | 4.72 µM (inactive) | 3.52 µM (inactive) | 5.66 µM (inactive) |
| O=C1c2cc(Cc3ccccc3)c(=O)c(Cc3ccccc3)cc2C(=O)c2cc(Cc3ccccc3)c(=O)c(Cc3ccccc3)cc21 | > 100 µM (inactive) | > 100 µM (inactive) | > 100 µM (inactive) | 97.3 µM (inactive) | > 100 µM (inactive) | > 100 µM (inactive) | > 100 µM (inactive) | > 100 µM (inactive) | > 100 µM (inactive) | > 100 µM (inactive) | > 100 µM (inactive) | > 100 µM (inactive) | > 100 µM (inactive) | > 100 µM (inactive) | > 100 µM (inactive) | > 100 µM (inactive) | > 100 µM (inactive) | > 100 µM (inactive) | > 100 µM (inactive) | > 100 µM (inactive) |
| C[n+]1ccc2/c(=C\C#N)c3ccccc3n21 | 52.2 µM (inactive) | 20.5 µM (inactive) | 32.5 µM (inactive) | 30.8 µM (inactive) | 19.1 µM (inactive) | 15.9 µM (inactive) | 23.9 µM (inactive) | 25.9 µM (inactive) | 22.4 µM (inactive) | 12.9 µM (inactive) | 14.6 µM (inactive) | 24.5 µM (inactive) | 24.9 µM (inactive) | > 100 µM (inactive) | 22.9 µM (inactive) | 19 µM (inactive) | 31 µM (inactive) | 19.7 µM (inactive) | 21.1 µM (inactive) | 18.2 µM (inactive) |
| c1ccc2c(c1)ccn2CCc1c[nH]c2ccccc12 | > 10 µM (inactive) | > 10 µM (inactive) | 8.07 µM (inactive) | > 10 µM (inactive) | > 10 µM (inactive) | > 10 µM (inactive) | > 10 µM (inactive) | > 10 µM (inactive) | > 10 µM (inactive) | > 10 µM (inactive) | > 10 µM (inactive) | > 10 µM (inactive) | > 10 µM (inactive) | 9.86 µM (inactive) | > 10 µM (inactive) | > 10 µM (inactive) | > 10 µM (inactive) | > 10 µM (inactive) | > 10 µM (inactive) | > 10 µM (inactive) |
| COc1ccc(-c2cc(-c3ccccc3)nc(/N=C\c3ccccc3)n2)c(O)c1 | > 100 µM (inactive) | 1.64 µM (inactive) | > 100 µM (inactive) | 4.04 µM (inactive) | 26.4 µM (inactive) | 8.05 µM (inactive) | 11.5 µM (inactive) | 7 µM (inactive) | > 100 µM (inactive) | 10.3 µM (inactive) | > 52.2 µM (inactive) | 3.33 µM (inactive) | > 26.4 µM (inactive) | 3.99 µM (inactive) | > 27.9 µM (inactive) | > 100 µM (inactive) | 6.81 µM (inactive) | > 100 µM (inactive) | > 41.9 µM (inactive) | 3.68 µM (inactive) |
| CCc1nc(N)nc(N)c1-c1ccc(NC)c([N+](=O)[O-])c1 | 0.558 µM (active) | 2.48 µM (inactive) | 28.6 µM (inactive) | 1 µM (active) | 0.192 µM (active) | 0.449 µM (active) | 0.904 µM (active) | 0.804 µM (active) | 8.81 µM (inactive) | 0.631 µM (active) | 10.7 µM (inactive) | 1.88 µM (inactive) | 8.41 µM (inactive) | 7.93 µM (inactive) | 0.44 µM (active) | 3.56 µM (inactive) | 0.15 µM (active) | 4.84 µM (inactive) | 15.5 µM (inactive) | 0.327 µM (active) |
| NC(=O)NC1NC(=O)NC1=O (stereo not given) [ALLANTOIN] | > 100 µM (inactive) | > 100 µM (inactive) | > 100 µM (inactive) | > 100 µM (inactive) | > 100 µM (inactive) | > 100 µM (inactive) | > 100 µM (inactive) | > 100 µM (inactive) | > 100 µM (inactive) | > 100 µM (inactive) | > 100 µM (inactive) | > 100 µM (inactive) | > 100 µM (inactive) | 6 µM (inactive) | > 100 µM (inactive) | > 100 µM (inactive) | > 100 µM (inactive) | > 100 µM (inactive) | > 100 µM (inactive) | > 100 µM (inactive) |
| CCOC(=O)C(CCN1CCC2(CC1)C(=O)N(C)CN2c1ccccc1)C(=O)OCC | > 100 µM (inactive) | > 100 µM (inactive) | > 100 µM (inactive) | > 100 µM (inactive) | > 100 µM (inactive) | > 100 µM (inactive) | > 100 µM (inactive) | > 100 µM (inactive) | > 100 µM (inactive) | > 100 µM (inactive) | > 100 µM (inactive) | > 100 µM (inactive) | > 100 µM (inactive) | > 100 µM (inactive) | > 100 µM (inactive) | 57.7 µM (inactive) | > 100 µM (inactive) | > 100 µM (inactive) | > 100 µM (inactive) | > 100 µM (inactive) |
| CCCCn1c2c(n(CCCC)c1=[Se])-c1c(n(CCCC)c(=[Se])n1CCCC)S[Se][Se]S2 | 29.4 µM (inactive) | 25.4 µM (inactive) | 6.52 µM (inactive) | 12.6 µM (inactive) | 20.7 µM (inactive) | 16.5 µM (inactive) | 7.1 µM (inactive) | 14.9 µM (inactive) | 2.01 µM (inactive) | 11.4 µM (inactive) | 6.95 µM (inactive) | 1.61 µM (inactive) | 38.5 µM (inactive) | 14.1 µM (inactive) | 26.5 µM (inactive) | 30.4 µM (inactive) | 7.6 µM (inactive) | 8.65 µM (inactive) | 9.27 µM (inactive) | 20.7 µM (inactive) |
